Source: ChEMBL document CHEMBL3112450, “Synthesis and in vitro antitumor evaluation of primary amine substituted quinazoline linked benzimidazole” (Bioorg Med Chem Lett, 2014)

What was measured:
Assay type in all cases: functional
MCF7 = assay: Cytotoxicity against human MCF7 cells assessed as cell growth at 10^-4 M after 48 hrs by SRB assay; conditions: MCF7, 48 h, read-out: Activity
Malme-3M = assay: Cytotoxicity against human MALME-3M cells assessed as cell growth at 10^-7 M after 48 hrs by SRB assay; conditions: read-out: Activity
SNB-19 [1] = assay: Cytotoxicity against human SNB19 cells assessed as cell growth at 10^-7 M after 48 hrs by SRB assay; conditions: SNB-19, 48 h, read-out: Activity
HCT-15 [2] = assay: Cytotoxicity against human HCT15 cells assessed as cell growth at 10^-7 M after 48 hrs by SRB assay; conditions: HCT-15, 48 h, read-out: Activity
COLO 205 = assay: Cytotoxicity against human COLO205 cells assessed as cell growth at 10^-7 M after 48 hrs by SRB assay; conditions: COLO 205, 48 h, read-out: Activity
NCI-H460 [3] = assay: Cytotoxicity against human NCI-H460 cells assessed as cell growth at 10^-7 M after 48 hrs by SRB assay; conditions: NCI-H460, 48 h, read-out: Activity
NCI-H23 = assay: Cytotoxicity against human NCI-H23 cells assessed as cell growth at 10^-7 M after 48 hrs by SRB assay; conditions: NCI-H23, 48 h, read-out: Activity
[4] = Cytotoxicity against human UO31 cells assessed as cell growth at 10^-8 M after 48 hrs by SRB assay; conditions: UO-31, 48 h, read-out: Activity
TK-10 = assay: Cytotoxicity against human TK10 cells assessed as cell growth at 10^-8 M after 48 hrs by SRB assay; conditions: TK-10, 48 h, read-out: Activity
SK-OV-3 = assay: Cytotoxicity against human SKOV3 cells assessed as cell growth at 10^-4 M after 48 hrs by SRB assay; conditions: SK-OV-3, 48 h, read-out: Activity
786-0 = assay: Cytotoxicity against human 786-0 cells assessed as cell growth at 10^-4 M after 48 hrs by SRB assay; conditions: 786-0, 48 h, read-out: Activity
[5] = Cytotoxicity against human NCI-ADR-RES cells assessed as cell growth at 10^-4 M after 48 hrs by SRB assay; conditions: read-out: Activity
IGROV-1 = assay: Cytotoxicity against human IGROV1 cells assessed as cell growth at 10^-4 M after 48 hrs by SRB assay; conditions: IGROV-1, 48 h, read-out: Activity
LOX IMVI [6] = assay: Cytotoxicity against human LOXIMVI cells assessed as cell growth at 10^-4 M after 48 hrs by SRB assay; conditions: read-out: Activity
HT-29 = assay: Cytotoxicity against human HT-29 cells assessed as cell growth at 10^-4 M after 48 hrs by SRB assay; conditions: HT-29, 48 h, read-out: Activity
HCT-15 [7] = assay: Cytotoxicity against human HCT15 cells assessed as cell growth at 10^-4 M after 48 hrs by SRB assay; conditions: HCT-15, 48 h, read-out: Activity
HCC 2998 [8] = assay: Cytotoxicity against human HCC2998 cells assessed as cell growth at 10^-4 M after 48 hrs by SRB assay; conditions: HCC 2998, 48 h, read-out: Activity
NCI-H226 = assay: Cytotoxicity against human NCI-H226 cells assessed as cell growth at 10^-4 M after 48 hrs by SRB assay; conditions: NCI-H226, 48 h, read-out: Activity
RPMI-8226 = assay: Cytotoxicity against human RPMI8226 cells assessed as cell growth at 10^-4 M after 48 hrs by SRB assay; conditions: RPMI-8226, 48 h, read-out: Activity
CAKI-1 = assay: Cytotoxicity against human Caki1 cells assessed as cell growth at 10^-8 M after 48 hrs by SRB assay; conditions: CAKI-1, 48 h, read-out: Activity
SK-MEL-2 = assay: Cytotoxicity against human SK-MEL-2 cells assessed as cell growth at 10^-8 M after 48 hrs by SRB assay; conditions: SK-MEL-2, 48 h, read-out: Activity
SW-620 = assay: Cytotoxicity against human SW620 cells assessed as cell growth at 10^-8 M after 48 hrs by SRB assay; conditions: SW-620, 48 h, read-out: Activity
HCC 2998 [9] = assay: Cytotoxicity against human HCC2998 cells assessed as cell growth at 10^-8 M after 48 hrs by SRB assay; conditions: HCC 2998, 48 h, read-out: Activity
BT-549 = assay: Cytotoxicity against human BT549 cells after 48 hrs by SRB assay; conditions: BT-549, 48 h
T47D = assay: Cytotoxicity against human T47D cells after 48 hrs by SRB assay
[10] = Cytotoxicity against human NCI-ADR-RES cells after 48 hrs by SRB assay
[11] = Cytotoxicity against human OVCAR5 cells after 48 hrs by SRB assay; conditions: OVCAR-5, 48 h
MDA-MB-435 = assay: Cytotoxicity against human MDA-MB-435 cells after 48 hrs by SRB assay; conditions: MDA-MB-435, 48 h
LOX IMVI [12] = assay: Cytotoxicity against human LOXIMVI cells after 48 hrs by SRB assay
SNB-19 [13] = assay: Cytotoxicity against human SNB19 cells after 48 hrs by SRB assay; conditions: SNB-19, 48 h
KM12 = assay: Cytotoxicity against human KM12 cells after 48 hrs by SRB assay; conditions: KM12, 48 h
HCT-116 = assay: Cytotoxicity against human HCT116 cells after 48 hrs by SRB assay; conditions: HCT-116, 48 h
NCI-H522 = assay: Cytotoxicity against human NCI-H522 cells after 48 hrs by SRB assay; conditions: NCI-H522, 48 h
NCI-H460 [14] = assay: Cytotoxicity against human NCI-H460 cells after 48 hrs by SRB assay; conditions: NCI-H460, 48 h
MDA-MB-468 = assay: Cytotoxicity against human MDA-MB-468 cells assessed as cell growth at 10^-6 M after 48 hrs by SRB assay; conditions: MDA-MB-468, 48 h, read-out: Activity
HCT-15 [15] = assay: Cytotoxicity against human HCT15 cells assessed as cell growth at 10^-6 M after 48 hrs by SRB assay; conditions: HCT-15, 48 h, read-out: Activity
HOP-62 = assay: Cytotoxicity against human HOP62 cells assessed as cell growth at 10^-6 M after 48 hrs by SRB assay; conditions: HOP-62, 48 h, read-out: Activity
[16] = Cytotoxicity against human Hs578T cells assessed as cell growth at 10^-7 M after 48 hrs by SRB assay; conditions: Hs-578T, read-out: Activity
[17] = read-out: LC50 (the source's name)

Structure (SMILES): C=CCn1c(C)nc2ccc(Nc3nc(Nc4ccc(F)cc4)nc4ccccc34)cc21
- growth at 100 µM (MCF7): -37%
- growth at 0.1 µM (Malme-3M): 98%
- growth at 0.1 µM (SNB-19 [1]): 93%
- growth at 0.1 µM (HCT-15 [2]): 101%
- growth at 0.1 µM (COLO 205): 103%
- growth at 0.1 µM (NCI-H460 [3]): 103%
- growth at 0.1 µM (NCI-H23): 87%
- growth at 0.01 µM [4]: 87%
- growth at 0.01 µM (TK-10): 99%
- growth at 100 µM (SK-OV-3): -37%
- growth at 100 µM (786-0): -71%
- growth at 100 µM [5]: -15%
- growth at 100 µM (IGROV-1): -51%
- growth at 100 µM (LOX IMVI [6]): -42%
- growth at 100 µM (HT-29): -34%
- growth at 100 µM (HCT-15 [7]): -38%
- growth at 100 µM (HCC 2998 [8]): -80%
- growth at 100 µM (NCI-H226): -5%
- growth at 100 µM (RPMI-8226): -36%
- growth at 0.01 µM (CAKI-1): 100%
- growth at 0.01 µM (SK-MEL-2): 98%
- growth at 0.01 µM (SW-620): 99%
- growth at 0.01 µM (HCC 2998 [9]): 95%
- GI50 (BT-549): 3.35 µM
- LC50 (BT-549): 73.1 µM
- TGI (BT-549): 18.1 µM
- GI50 (T47D): 1.7 µM
- LC50 (T47D): > 100 µM
- TGI (T47D): 4.23 µM
- GI50 [10]: 4.01 µM
- LC50 [10]: > 100 µM
- TGI [10]: 37.7 µM
- GI50 [11]: 11.6 µM
- LC50 [11]: 61.2 µM
- TGI [11]: 26.6 µM
- GI50 (MDA-MB-435): 4 µM
- LC50 (concentration killing 50% of cells) (MDA-MB-435): 92.4 µM
- TGI (MDA-MB-435): 20.4 µM
- GI50 (LOX IMVI [12]): 4.36 µM
- LC50 (LOX IMVI [12]): > 100 µM
- TGI (LOX IMVI [12]): 23 µM
- GI50 (SNB-19 [13]): 9 µM
- TGI (SNB-19 [13]): 23.8 µM
- CC50 (SNB-19 [13]; [17]): 58.6 µM
- GI50 (KM12): 4.07 µM
- LC50 (concentration killing 50% of cells) (KM12): 51.8 µM
- TGI (KM12): 16.4 µM
- GI50 (HCT-116): 2.41 µM
- LC50 (concentration killing 50% of cells) (HCT-116): 39.1 µM
- TGI (HCT-116): 7.67 µM
- GI50 (NCI-H522): 3.12 µM
- TGI (NCI-H522): 13.4 µM
- CC50 (NCI-H522; [17]): 75.5 µM
- GI50 (NCI-H460 [14]): 3.11 µM
- LC50 (concentration killing 50% of cells) (NCI-H460 [14]): 83.9 µM
- TGI (NCI-H460 [14]): 14.5 µM
- growth at 1 µM (MDA-MB-468): 64%
- growth at 1 µM (HCT-15 [15]): 91%
- growth at 1 µM (HOP-62): 95%
- growth at 0.1 µM [16]: 99%
